From the supplement of paper PMC10883282
± gives the standard deviation of the averaged measurements.

What was measured:
Assay in all cases: relative viability vs DMSO control (72 h) (fraction); higher = more viable cells
HT1080 = system: HT1080
Method in brief: (§1)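 Sarcoma cell lines were seeded in 384-well plates at densities set to reach 80–90% confluence. After 24 h, 2.5 µl of serially diluted compound was added (source plates 10 mM to 0.0002 mM), and plates were held 72 h at 37 °C, 5% CO2, with 0.1% DMSO vehicle and a 5 µM positive control. Relative viability came from ATPLite readings as percent growth, averaged over up to triplicate wells. Data were rescaled so full viability equals 1 and none equals 0.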

KHOS-NP = system: KHOS-NP
Method in brief: as §1

SK-ES-1 = system: SK-ES-1
Method in brief: as §1

RD-ES = system: RD-ES
Method in brief: as §1

SW982 = system: SW982
Method in brief: as §1

KHOS-240S = system: KHOS-240S
Method in brief: as §1

CCC(=O)N1CC[C@H](Nc2ncnc3c2CN(c2cnc(OC)c(C(F)(F)F)c2)CC3)C1 [Leniolisib]
relative viability
Conditions	HT1080	KHOS-240S	KHOS-NP	RD-ES	SK-ES-1	SW982
0.00017 µM	1.09 ± 0.013	1.03 ± 0.017	1.11 ± 0.017	0.985 ± 0.038	1.04 ± 0.07	1.02 ± 0.014
0.00051 µM	1.077 ± 0.0024	1.05 ± 0.023	1.11 ± 0.022	1.034 ± 0.0094	1.02 ± 0.087	1.05 ± 0.021
0.00152 µM	1.1 ± 0.01	1.05 ± 0.04	1.09 ± 0.012	1.03 ± 0.022	1.07 ± 0.11	1.05 ± 0.018
0.00457 µM	1.09 ± 0.024	1.06 ± 0.056	1.101 ± 0.009	1.03 ± 0.029	1.02 ± 0.058	1.05 ± 0.021
0.01372 µM	1.05 ± 0.031	1.05 ± 0.045	1.08 ± 0.014	1 ± 0.021	1.04 ± 0.05	1.06 ± 0.049
0.04115 µM	1.038 ± 0.0062	1.02 ± 0.019	1.07 ± 0.02	1.02 ± 0.0046	1.05 ± 0.12	1.06 ± 0.062
0.1235 µM	1.05 ± 0.028	1.017 ± 0.0085	1.07 ± 0.013	0.989 ± 0.029	1.01 ± 0.061	1.02 ± 0.032
0.3704 µM	1.04 ± 0.011	0.997 ± 0.021	1.061 ± 0.0038	0.958 ± 0.013	1 ± 0.059	1.02 ± 0.043
1.111 µM	1.03 ± 0.026	0.975 ± 0.028	1.05 ± 0.024	0.908 ± 0.014	0.999 ± 0.073	0.985 ± 0.033
3.333 µM	1.04 ± 0.043	0.9 ± 0.045	1.05 ± 0.026	0.856 ± 0.022	0.898 ± 0.075	0.836 ± 0.049
10 µM	0.94 ± 0.033	0.8026 ± 0.0076	0.96 ± 0.016	0.709 ± 0.03	0.741 ± 0.071	0.678 ± 0.02
